# Experimental data taken from ChEMBL document CHEMBL3769388, “Optimization of a Dicarboxylic Series for in Vivo Inhibition of Citrate Transport by the Solute Carrier 13 (SLC13) Family” (J Med Chem, 2016).
# The source made the active and inactive calls. No cut-off for these calls is given here.
# Key:
# [1] = molecular target: Sodium-dependent phosphate transport protein 1 (Homo sapiens) (UniProt Q14916); test: Inhibition of NaPiA1 (unknown origin)
# [2] = molecular target: 3',5'-cyclic-AMP phosphodiesterase 4D (Homo sapiens) (UniProt Q08499); test: Inhibition of PDE4D2 (unknown origin)
# [3] = molecular target: Sodium-dependent noradrenaline transporter (Homo sapiens) (UniProt P23975); test: Inhibition of NAT (unknown origin)
# [4] = molecular target: cGMP-specific 3',5'-cyclic phosphodiesterase (Homo sapiens) (UniProt O76074); test: Inhibition of PDE5A1 (unknown origin)
# [5] = molecular target: Beta-2 adrenergic receptor (Homo sapiens) (UniProt P07550); test: Inhibition of ADRB2 (unknown origin)
# Rattus norvegicus = organism: Rattus norvegicus; test: Increase in […][13C]-citrate levels in rat liver measured over 140 to 150 mins by UPLC-MS/MS analysis; assay type: functional, organism-based
# 3',5'-cyclic-AMP phosphodiesterase 4D (Homo sapiens), sequence (Q08499 whole entry): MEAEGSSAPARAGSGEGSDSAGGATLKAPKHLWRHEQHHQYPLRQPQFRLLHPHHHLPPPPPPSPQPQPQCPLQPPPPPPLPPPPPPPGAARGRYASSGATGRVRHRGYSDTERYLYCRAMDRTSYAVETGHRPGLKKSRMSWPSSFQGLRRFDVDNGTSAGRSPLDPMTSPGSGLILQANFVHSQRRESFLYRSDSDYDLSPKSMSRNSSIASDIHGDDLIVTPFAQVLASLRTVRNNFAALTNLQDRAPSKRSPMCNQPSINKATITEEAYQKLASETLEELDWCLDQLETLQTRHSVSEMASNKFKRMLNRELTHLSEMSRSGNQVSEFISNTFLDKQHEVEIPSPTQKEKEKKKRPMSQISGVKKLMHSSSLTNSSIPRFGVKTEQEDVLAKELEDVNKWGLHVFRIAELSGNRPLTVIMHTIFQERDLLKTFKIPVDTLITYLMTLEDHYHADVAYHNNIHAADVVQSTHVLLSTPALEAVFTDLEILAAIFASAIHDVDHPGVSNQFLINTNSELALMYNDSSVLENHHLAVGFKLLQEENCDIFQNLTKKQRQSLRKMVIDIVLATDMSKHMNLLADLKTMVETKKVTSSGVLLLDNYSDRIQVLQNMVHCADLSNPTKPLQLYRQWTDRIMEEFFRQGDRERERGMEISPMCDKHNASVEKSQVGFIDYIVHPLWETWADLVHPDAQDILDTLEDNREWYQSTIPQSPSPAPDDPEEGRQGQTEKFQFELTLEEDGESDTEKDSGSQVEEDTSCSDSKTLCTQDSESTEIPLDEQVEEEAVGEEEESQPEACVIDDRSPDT
# Beta-2 adrenergic receptor (Homo sapiens), sequence (P07550 whole entry, looked up): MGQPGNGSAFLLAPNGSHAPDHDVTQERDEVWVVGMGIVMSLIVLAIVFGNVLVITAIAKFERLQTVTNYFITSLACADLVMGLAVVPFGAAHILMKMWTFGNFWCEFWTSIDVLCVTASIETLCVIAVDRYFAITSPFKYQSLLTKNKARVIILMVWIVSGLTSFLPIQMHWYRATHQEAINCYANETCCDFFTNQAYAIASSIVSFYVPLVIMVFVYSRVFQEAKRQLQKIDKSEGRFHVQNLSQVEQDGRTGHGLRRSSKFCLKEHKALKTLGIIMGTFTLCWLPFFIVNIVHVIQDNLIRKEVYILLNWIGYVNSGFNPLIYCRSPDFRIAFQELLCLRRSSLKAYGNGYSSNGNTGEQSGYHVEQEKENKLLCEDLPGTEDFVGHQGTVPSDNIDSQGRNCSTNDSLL
# Sodium-dependent noradrenaline transporter (Homo sapiens), sequence (P23975 whole entry): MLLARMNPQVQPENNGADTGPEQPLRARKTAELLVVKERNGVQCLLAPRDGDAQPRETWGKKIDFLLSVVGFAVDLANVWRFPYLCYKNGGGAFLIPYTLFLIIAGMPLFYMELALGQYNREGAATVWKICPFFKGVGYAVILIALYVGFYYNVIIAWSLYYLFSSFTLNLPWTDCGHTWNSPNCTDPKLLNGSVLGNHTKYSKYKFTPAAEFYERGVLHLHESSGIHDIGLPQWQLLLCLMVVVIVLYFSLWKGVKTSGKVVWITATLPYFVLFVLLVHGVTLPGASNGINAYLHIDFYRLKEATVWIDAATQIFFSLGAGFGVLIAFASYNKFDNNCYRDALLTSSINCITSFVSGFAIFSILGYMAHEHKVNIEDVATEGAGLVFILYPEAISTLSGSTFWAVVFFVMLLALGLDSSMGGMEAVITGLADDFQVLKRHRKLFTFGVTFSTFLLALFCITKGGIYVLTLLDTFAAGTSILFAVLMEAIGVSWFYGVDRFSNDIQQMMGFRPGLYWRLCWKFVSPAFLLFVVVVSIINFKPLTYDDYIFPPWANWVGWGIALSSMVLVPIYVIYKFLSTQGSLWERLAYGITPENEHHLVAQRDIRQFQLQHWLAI
# Sodium-dependent phosphate transport protein 1 (Homo sapiens), sequence (Q14916 whole entry): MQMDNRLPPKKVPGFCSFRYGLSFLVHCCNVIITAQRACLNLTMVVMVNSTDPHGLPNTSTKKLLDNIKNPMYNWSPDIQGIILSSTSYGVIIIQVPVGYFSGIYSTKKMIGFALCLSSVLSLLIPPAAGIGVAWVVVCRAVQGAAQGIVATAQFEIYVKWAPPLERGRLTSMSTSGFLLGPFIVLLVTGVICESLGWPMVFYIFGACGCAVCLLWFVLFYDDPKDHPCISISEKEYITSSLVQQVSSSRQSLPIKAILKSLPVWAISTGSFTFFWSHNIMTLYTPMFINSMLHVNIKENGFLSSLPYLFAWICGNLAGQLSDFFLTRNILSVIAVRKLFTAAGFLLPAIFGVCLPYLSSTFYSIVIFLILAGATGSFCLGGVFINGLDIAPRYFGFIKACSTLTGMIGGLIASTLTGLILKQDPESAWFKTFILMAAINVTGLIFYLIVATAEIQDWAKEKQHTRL
structure (smiles),measurement,setting,value
COc1ncc(C)cc1CC[C@@](O)(CC(=O)O)C(=O)O,inhibition,[1],inactive
same,inhibition,[2],inactive
same,inhibition,[3],inactive
same,inhibition,[4],inactive
same,inhibition,[5],inactive
same,Activity,Rattus norvegicus,Active
